Source: patent US11932652B2, “Pyrrolidinyl urea derivatives and application thereof in TrkA-related diseases” (ZHANGZHOU PIEN TZE HUANG PHARMACEUTICAL CO., LTD., priority 2018, dated 2024)

Key:
plasma protein [1] = assay: Plasma protein binding rate (PPB) test, human plasma; type: in vitro ADME; conditions: 2 μM, dialysis 37° C. 4 hours
Protocol: (§1) The protein binding rates of the test compound in the plasma of humans, SD rats and Beagle dogs were determined.
(§2) 796 μL of blank plasma from humans, SD rats and Beagle dogs (plasma purchased from BioreclamationIVT) were taken, 4 μL of working solution of the test compound (400 μM) or warfarin working solution (400 μM) was added and the final concentration of the test compound or warfarin was 2 μM. The sample was mixed thoroughly. The final concentration of organic phase DMSO was 0.5%; 50 μL of the plasma sample treated with the test compound or warfarin was pipetted into the sample receiving plate, and a corresponding volume of blank plasma or buffer was added immediately so that the final volume in each sample well was 100 μL, the volume ratio of plasma:dialysis buffer was 1:1; 400 μL of stop solution was added to these samples, and these samples were used as T0 samples for recovery and stability determination. To samples were stored at 2° C. to 8° C. for subsequent processing together with other dialyzed samples; 150 μL of the plasma sample treated with the test compound or warfarin was added into the dosing end of each dialysis hole, and 150 μL of blank dialysis buffer was added to the receiving end corresponding to the dialysis hole. Then the dialysis plate was sealed with gas-permeable membrane and placed in a humidified 5% CO2 incubator, and incubated at 37° C. with 100 rpm shaking for 4 hours. After the dialysis, 50 μL of the dialysis buffer sample and the dialysis plasma sample was transferred to a new sample receiving plate. […] All samples were analyzed by LC/MS/MS after protein precipitation, and the plasma protein unbound rate, binding rate and recovery rate was calculated according to the following formula: % unbound rate=100*free compound concentration at the membrane buffer side/total compound concentration at the membrane plasma side, % protein binding rate=100-% unbound rate, % recovery rate=100*(free compound concentration at the membrane buffer side+total compound concentration at the membrane plasma side)/total compound concentration before dialysis.

CYP3A4 = biological target: T1, CYP3A4 (Homo sapiens, UniProt P08684); assay: Cytochrome P450 isozyme inhibitory activity test, CYP3A4; type: in vitro ADME; conditions: heading: Cytochrome P450 isozyme IC50, CYP3A4; human liver microsome
T1 construct: from tissue; host or cells: human liver microsomes
Protocol: (§3) Determination of the inhibitory activity of the test compound on different human cytochrome P450 isozymes.
(§4) The test compound, standard inhibitor (100×final concentration), and a mixed substrate working solution were prepared; the microsome frozen in −80° C. refrigerator was thawed. 2 μL of the test compound and standard inhibitor solution was added to the corresponding wells, and at the same time 2 μL of the corresponding solvent was added to the non-inhibitor control wells (NIC) and blank control wells (Blank) wells; then 20 μL of mixed substrate solution was added to the corresponding wells, except for the Blank wells (20 μL of PB was added to the Blank wells); a human liver microsome solution was prepared (put back into the refrigerator immediately after using and marking the date), and then 158 μL of the human liver microsome solution was added to all wells; the above sample plate was placed in a 37° C. water bath for pre-incubation, then the coenzyme factor (NADPH) solution was prepared; 10 minutes later, 20 μL of the NADPH solution was added to all wells, and the sample plate was shaken well, placed in a 37° C. water bath and incubated for 10 minutes; at the corresponding time point, 400 μL of cold acetonitrile solution (internal standard: 200 ng/mL tolbutamide and labetalol) was added to terminate the reaction; the sample plate was evenly mixed, centrifuged at 4000 rpm for 20 minutes to precipitate proteins; 200 μL of the supernatant was added to 100 μL of water, shook well, and tested by LC/MS/MS.

plasma protein [2] = assay: Plasma protein binding rate (PPB) test, SD rat plasma; type: in vitro ADME; conditions: 2 μM, dialysis 37° C. 4 hours
Protocol: as §1, §2

CYP2C19 = biological target: T2, CYP2C19 (Homo sapiens, UniProt P33261); assay: Cytochrome P450 isozyme inhibitory activity test, CYP2C19; type: in vitro ADME; conditions: heading: Cytochrome P450 isozyme IC50, CYP2C19; human liver microsome
T2 construct: from tissue; host or cells: human liver microsomes
Protocol: as §3, §4

[3] = In vivo pharmacokinetics in mice after single administration; design: species or system CD-1 mice
Protocol: Male CD-1 mice were used as test animals, the concentration of the compound in blood was determined after single administration to evaluate the pharmacokinetic behavior.
CD-1 mice (male, 20-40 g, 6-9 weeks, Shanghai Sippr-Bk Laboratory Animal Co., Ltd.)
The pharmacokinetic characteristics of the test compound in rodents after intravenous injection and oral administration were tested by standard protocols, in the experiment, the test compound was prepared into a clear solution or homogeneous suspension, and administered to the mice by single intravenous injection and oral administration. […] The plasma sample was added to acetonitrile solution containing the internal standard with a volume 20 times that of the plasma sample to precipitate proteins, and then centrifuged; the supernatant was separated, and water with a volume twice that of the supernatant was added to the supernatant, which was then centrifuged again; the supernatant was collected for analysis; LC-MS/MS analysis method was used to quantitatively analyze the blood drug concentration, and Phoenix WinNonlin software (Pharsight, USA) was used to calculate the pharmacokinetic parameters, such as peak concentration, time to peak concentration, clearance rate, half-life, area under the concentration-time curve, bioavailability, etc. […]

T1 sequence (P08684 whole entry): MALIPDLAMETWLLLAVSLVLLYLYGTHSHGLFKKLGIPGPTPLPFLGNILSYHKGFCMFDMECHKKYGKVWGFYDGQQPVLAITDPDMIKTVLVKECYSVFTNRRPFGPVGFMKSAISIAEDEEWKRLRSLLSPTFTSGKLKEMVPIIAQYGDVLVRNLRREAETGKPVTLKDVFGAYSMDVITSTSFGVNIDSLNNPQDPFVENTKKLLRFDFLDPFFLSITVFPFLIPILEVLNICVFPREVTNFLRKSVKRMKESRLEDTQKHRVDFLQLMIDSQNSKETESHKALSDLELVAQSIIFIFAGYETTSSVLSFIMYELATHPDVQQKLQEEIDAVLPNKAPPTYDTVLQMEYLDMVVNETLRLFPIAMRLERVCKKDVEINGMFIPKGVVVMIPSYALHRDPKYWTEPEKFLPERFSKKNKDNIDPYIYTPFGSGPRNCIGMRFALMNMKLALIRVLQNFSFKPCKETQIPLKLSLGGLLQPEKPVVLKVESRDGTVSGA
T2 sequence (P33261 whole entry): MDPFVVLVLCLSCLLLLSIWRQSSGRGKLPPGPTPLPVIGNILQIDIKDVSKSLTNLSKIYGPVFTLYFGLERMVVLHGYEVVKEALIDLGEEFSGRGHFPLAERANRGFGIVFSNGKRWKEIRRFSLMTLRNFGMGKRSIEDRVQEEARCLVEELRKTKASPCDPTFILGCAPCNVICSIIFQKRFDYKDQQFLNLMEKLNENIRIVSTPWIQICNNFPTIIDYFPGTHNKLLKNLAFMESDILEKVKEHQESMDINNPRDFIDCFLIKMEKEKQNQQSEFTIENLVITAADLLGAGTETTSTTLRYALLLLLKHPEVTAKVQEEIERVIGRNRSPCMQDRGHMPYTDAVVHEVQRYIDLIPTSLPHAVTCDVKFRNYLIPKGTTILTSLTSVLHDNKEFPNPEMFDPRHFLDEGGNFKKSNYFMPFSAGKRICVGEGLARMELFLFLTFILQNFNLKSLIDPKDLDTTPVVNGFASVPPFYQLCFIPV

Plasma protein unbound rate, Human plasma (plasma protein [1]): 13.2%
IC50 (CYP3A4): > 50 µM
Plasma protein unbound rate, SD Rat plasma (plasma protein [2]): 7.1%
IC50 (CYP2C19): > 50 µM
SMILES: COCCN1C[C@@H](n2ccc(F)c2)[C@H](NC(=O)Nc2c(C)c(-c3cnc(C4(F)COC4)nc3)nn2-c2ccccc2)C1 [Compound 7]
pharmacokinetic properties and oral bioavailability (in words) [3]: good pharmacokinetic properties and oral bioavailability
